According to patent US12070477B2, “Lactobacillus sp. strain having ability to inhibit growth of vaginal pathogenic microorganisms” (KoBioLabs, Inc., priority 2015, dated 2024):

System: Gardnerella vaginalis
Assay: Gardnerella vaginalis-infected mouse vaginitis model, microbiome analysis after vaginal administration
Assay type: in vivo, female mice (BALB/c mice)
Description: The hormone control and estrous cycle were induced by intraperitoneally injecting 0.5 mg of beta-esteradiol 3-benzonate to female mice (BALB/c mice). After three days, they were directly infected with Gardnerella vaginalis in the vagina at a concentration of 1×10^7 CFU per mouse to establish a vaginitis animal model. Thereafter, four kinds of Lactobacillus isolates corresponding to 10^8 to 10^9 CFU per mouse were vaginally administered (7 mice per group). On day 2, the total bacterial DNA was extracted from the vaginal samples washed with 0.1 mL of PBS (Phosphate Buffered Saline) and microbiome community analysis was performed to measure the relative abundance of Gardnerella vaginalis and other vaginal microbiota. […] The analyzed sequences were subjected to microbiome analysis including taxon profile, α-diversity and β-diversity showing the difference in community structure between groups through Qiime pipeline, and the change in the amount of Gardnerella vaginalis pathogens upon the administration of Lactobacillus isolates was evaluated by calculating relative abundances (/% GV treatment group).

Cc1ncc([N+](=O)[O-])n1CCO [MTZ, metronidazole]
community structure of the vaginal microflora (Unweighted UniFrac distance) (compared to Gardnerella vaginalis-infected control group, after 2 days of administration): no change in the community structure
Relative abundance (/% GV group) of Gardnerella vaginalis (vaginal administration after infection, day 2, 16S microbiome analysis, GV group = 100): 74.9 /% GV group
